Test results reported in US5705499A, “8-arylalkyl- and 8-arylheteroalkyl-5,11-dihydro-6H-dipyrido[3,2-B:2',3'-e][1]diazepines and their use in the treatment of HIV-1 infection” (Boehringer Ingelheim Pharmaceuticals, Inc., priority 1996, dated 1998).

Test system: C8166-45 cell line
Experiment: MTT Assay (cytotoxicity)
Type: cell-based, human
Details: C8166-45 cells, five days

| SMILES | MTT Assay CC30 |
| --- | --- |
| CCN1c2ncc([C@@H]3O[C@@H]3c3ccccc3)cc2C(=O)N(C)c2ccc(Cl)nc21 (relative stereo) [Example 46, 2Chloro-5,11-dihydro-11-ethyl-5-methyl-8-(2-phenyloxiranyl)-6H-dipyrido[3,2-b:2',3'-e][1,4]diazepin-6-one] | > 30 µM |
| CCN1c2ncc(CCc3cc[n+]([O-])cc3)cc2C(=O)N(C)c2ccc(Cl)nc21 [Example 8, 2-Chloro-5,11-dihydro-11-ethyl-8-[2-(4-(N-oxopyridyl))ethyl]-5-methyl-6H-dipyrido[3,2-b:2',3'-e][1,4]diazepin-6-one] | > 256 µM |
| CCN1c2ncc(CC(O)c3ccncc3)cc2C(=O)N(C)c2ccc(Cl)nc21 (centres unmarked) [Example 9, 2-Chloro-5,11-dihydro-11-ethyl-8-[2-hydroxy-2-(pyrid-4yl)ethyl-]5methyl-6H-dipyridol[3,2-b:2',3'-e][1,4]diazepin-6-one] | 150 µM |
| CCN1c2ncc(CC(F)c3ccncc3)cc2C(=O)N(C)c2ccc(Cl)nc21 (centres unmarked) [Example 11, 2-Chloro-5,11-dihydro-11-ethyl-8-[2-fluoro-2-(4-pyridyl)ethyl]-5-methyl-6H-dipyrido-[3,2-b:2',3'-e][1,4]diazepin-6-one] | 150 µM |
| CCN1c2ncc(CC(=O)c3ccncc3)cc2C(=O)N(C)c2ccc(Cl)nc21 [Example 12, 2-Chloro-5,11-dihydro-11-ethyl-8-[2-oxo-2-(4-pyridyl)ethyl]-5-methyl-6H-dipyrido[3,2-b:2',3'-e][1,4]diazepin-6-one] | 250 µM |
| CCN1c2ncc(CC(O)c3cc[n+]([O-])cc3)cc2C(=O)N(C)c2ccc(Cl)nc21 (centres unmarked) [Example 13, 2-Chloro-5,11-dihydro-11-ethyl-8-[2-hydroxy-2-(N-oxo-pyrid-4-yl)ethyl]-5-methyl-6H-dipyrido[3,2-b:2',3'-e][1,4]diazepin-6-one] | > 128 µM |
| CCN1c2ncc(CCc3cccc(N)c3)cc2C(=O)N(C)c2ccc(Cl)nc21 [Example 22, 8-[2-(3-Aminophenyl)ethyl]-2-chloro-5,11-dihydro-11-ethyl-5-methyl-6H-dipyrido[3,2-b:2',3'-e][1,4]diazepin-6-one] | 60 µM |
| CCN1c2ncc(CCc3cccc(NC(N)=O)c3)cc2C(=O)N(C)c2ccc(Cl)nc21 [Example 26, 2Chloro-5,11-dihydro-11-ethyl-5-methyl-8-2-[(3-ureidophenyl)ethyl]-6H-dipyrido[3,2-b:2',3'-e][1,4]diazepin-6-one] | 35 µM |
| CCN1c2ncc(CCc3cccc4[nH]ccc34)cc2C(=O)N(C)c2cccnc21 [Example 29, 5,11-Dihydro-11-ethyl-5methyl-8-[2-(4-indolyl)ethyl]-6H-dipyrido[3,2-b:2',3'-e][1,4]diazepin-6-one] | > 60 µM |
| CN1C(=O)c2cc(CCc3ccncc3)cnc2N(C2CC2)c2nc(Cl)ccc21 [Example 37, 2Chloro-11-cyclopropyl-5,11-dihydro-5-methyl-8-[2-(pyrid-4-yl)ethyl]-6H-dipyrido[3,2-b:2',3'-e][1,4]diazepin-6-one] | > 60 µM |
| CCN1c2ncc(CCc3ccncc3)cc2C(=O)N(C)c2ccc(F)nc21 [Example 38, 5,11-Dihydro-11-ethyl-2-fluoro-5-methyl-8-[2-(pyrid-4-yl)ethyl]-6H-dipyrido[3,2-b:2',3'-e][1,4]diazepin-6-one] | 150 to 175 µM |
| CCN1c2ncc(CC(O)c3ccncc3)cc2C(=O)N(C)c2ccc(F)nc21 (centres unmarked) [Example 40, 5,11-Dihydro-11-ethyl-2-fluoro-8-[2-hydroxy-2-(pyrid-4-yl)ethyl]-5-methyl-6H-dipyrido[3,2-b:2',3'-e][1,4]diazepin-6-one] | > 20 µM |
| CCN1c2ncc(CCc3ccc4ccccc4c3)cc2C(=O)N(C)c2ccc(F)nc21 [Example 41, 5,11-Dihydro-11-ethyl-2-fluoro-5-methyl-8-[2-(2-naphthyl)ethyl]-6H-dipyrido[3,2-b:2',3'-e][1,4]diazepin-6-one] | 20 µM |
| CCN1c2ncc(CCc3ccccc3C)cc2C(=O)N(C)c2cccnc21 [Example 62, 5,11-Dihydro-11-ethyl-5-methyl-8-[2-(2-tolyl)ethyl]-6H-dipyrido[3,2-b:2',3'-e][1,4]diazepin-6-one] | > 130 µM |
| CCN1c2ncc(CCc3ccccc3N)cc2C(=O)N(C)c2cccnc21 [Example 64, 8-[2-(2-Aminophenyl)ethyl]-5,11-dihydro-11-ethyl-5-methyl-6H-dipyrido[3.2-b:2',3'-e][1,4]diazepin-6-one] | > 200 µM |
| CCN1c2ncc(CCc3ccnc(C)c3)cc2C(=O)N(C)c2cccnc21 [Example 65, 5,11-Dihydro-11-ethyl-5-methyl-8-[2-(2-methylpyrid-4-yl)ethyl]-6H-dipyrido[3,2-b:2',3'-e][1,4]diazepin-6-one] | 230 µM |
| CCN1c2ncc(CCc3ccnc(C)c3)cc2C(=O)N(C)c2ccc(Cl)nc21 [Example 66, 2-Chloro-5,11-dihydro-11-ethyl-5-methyl-8-[2-(2-methylpyrid-4-yl)ethyl]-6H-dipyrido[3,2-b:2',3'-e][1.4]diazepin-6-one] | 100 µM |
| CCN1c2ncc(CCc3ccnc(CO)c3)cc2C(=O)N(C)c2ccc(Cl)nc21 [Example 67, 2-Chloro-5,11-dihydro-11-ethyl-5-methyl-8-[2-(2-hydroxymethyl-4-pyridyl)ethyl]-6H -dipyrido[3,2-b:2',3'-e][1,4]diazepin-6-one] | 128 µM |

| SMILES | MTT Assay CC30 |
| --- | --- |
| CCN1c2ncc(CCc3ccnc(C(N)=O)c3)cc2C(=O)N(C)c2ccc(Cl)nc21 [Example 69, 2-Chloro-5,11-dihydro-11-ethyl-5-methyl-8-[2-(2-carboxamidopyrid-4-yl)ethyl]-6H-dipyrido[3,2-b:2',3'-e][1,4]diazepin-6-one] | > 128 µM |
| CCN1c2ncc(CCc3ccccc3)cc2C(=O)Nc2c1nc(Cl)c(Br)c2C [Example 75, 3-Bromo-2-chloro-5,11-dihydro-11-ethyl-4-methyl-8-(2-phenylethyl)-6H-dipyrido[3,2-b:2',3'-e][1,4]diazepin-6-one] | > 130 µM |
| CCN1c2ncc(CCc3ccccc3)cc2C(=O)Nc2c(C)ccnc21 [Example 76, 5,11-Dihydro-11-ethyl-4-methyl-8-(2-phenylethyl)-6H-dipyrido[3,2-b:2',3'-e][1,4]diazepin-6-one] | > 130 µM |
| CCN1c2ncc(C=O)cc2C(=O)N(C)c2ccc(Cl)nc21 [Example 80, 2-chloro-5,11-dihydro-11-ethyl-8-formyl-5-methyl-6H-dipyrido[3,2-b:2',3'-e][1,4]diazepin-6-one] | 65 µM |
| CCN1c2ncc(CCl)cc2C(=O)N(C)c2ccc(Cl)nc21 [Example 82, 2-chloro-8-chloromethyl-5,11-dihydro-11-ethyl-5-methyl-6H-dipyrido[3,2-b:2',3'-e][1,4]diazepin-6-one] | > 256 µM |
| CCN1c2ncc(CCO)cc2C(=O)N(C)c2ccc(Cl)nc21 [Example 85, 2-chloro-5,11-dihydro-11-ethyl-8-(β-hydroxy)ethyl-5-methyl-6H-dipyrido[3,2-b:2',3'-e][1,4]diazepin-6-one] | > 256 µM |
| CCN1c2ncc(C(C)O)cc2C(=O)N(C)c2ccc(Cl)nc21 (stereo not drawn) [Example 86, 2-chloro-5,11-dihydro-11-ethyl-8-(α-hydroxy)ethyl-5-methyl-6H-dipyrido[3,2-b:2',3'-e][1,4]diazepin-6-one] | 256 µM |
| CCN1c2ncc(CNc3ccccc3)cc2C(=O)N(C)c2ccc(Cl)nc21 [Example 87, 2-chloro-5,11-dihydro-11-ethyl-5-methyl-8-(phenylamino)methyl-6H-dipyrido[3,2-b:2',3'-e][1,4]diazepin-6-one] | > 60 µM |
| CCN1c2ncc(CNc3cccc(N)c3)cc2C(=O)N(C)c2ccc(Cl)nc21 [Example 88, 8-(3-aminophenylamino)methyl-2-chloro-5,11-dihydro-11-ethyl-5-methyl-6H-dipyrido[3,2-b:2',3'-e][1,4]diazepin-6-one] | 60 µM |
| CCN1c2ncc(O)cc2C(=O)N(C)c2ccc(Cl)nc21 [Example 89, 2-chloro-5,11-dihydro-11-ethyl-8-hydroxy-5-methyl-6H-dipyrido[3,2-b:2',3'-e[]1,4]diazepin-6-one] | 130 µM |
| CCN1c2ncc(OCc3ccccc3)cc2C(=O)N(C)c2ccc(Cl)nc21 [Example 90, 2-chloro-5,11-dihydro-11-ethyl-5-methyl-8-phenylmethoxy-6H-dipyrido[3,2-b:2',3'-e][1,4]diazepin-6-one] | > 60 µM |
| CCN1c2ncc(COc3cc[n+]([O-])c(C)c3)cc2C(=O)N(C)c2ccc(Cl)nc21 [Example 94, 2-chloro-5,11-dihydro-11-ethyl-5-methyl-8-(N-oxo-2-methylpyrid-4-yloxy)methyl-6H-dipyrido[3,2-b:2',3'-e][1,4]diazepin-6-one] | 200 µM |
| CCN1c2ncc(COc3cc[n+]([O-])c(C(F)(F)F)c3)cc2C(=O)N(C)c2ccc(Cl)nc21 [Example 95, 2-chloro-5,11-dihydro-11-ethyl-5-methyl-8-(N-oxo-2-trifluoromethylpyrid-4-yloxy)methyl-6H-dipyrido[3,2-b:2',3'-e][1,4]diazepin-6-one] | 100 µM |
| CCN1c2ncc(COc3cc[n+]([O-])cc3)cc2C(=O)N(C)c2cccnc21 [Example 97, 5,11-dihydro-11-ethyl-5-methyl-8-((1-oxo-pyridin-4-yl)oxy)methyl-6H-dipyrido[3,2-b:2',3'-e][1,4]diazepin-6-one] | > 130 µM |
| CCN1c2ncc(COc3cccc([N+](=O)[O-])c3)cc2C(=O)N(C)c2ccc(Cl)nc21 [Example 98] | > 60 µM |
| CCN1c2ncc(COc3cccc(F)c3)cc2C(=O)N(C)c2ccc(Cl)nc21 [Example 101] | > 60 µM |
| CCN1c2ncc(COc3ccc(F)cc3)cc2C(=O)N(C)c2ccc(Cl)nc21 [Example 103, 2-chloro-5,11-dihydro-11-ethyl-8-(4-fluorophenyloxy)methyl-5-methyl-6H-dipyrido[3,2-b:2',3'-e][1,4]diazepin-6-one] | > 60 µM |
